Measured values published in publication PMC8079061 (Pharmaceutical Biology, 2021).
Values belong to the compound of their own block, whether it stands above or below them.

Columns and labels:
recombinant human CYP2D6 = recombinant human CYP2D6 (Homo sapiens, UniProt P10635); assay: Inhibition of poziotinib metabolism; type: in vitro ADME; conditions: CYP2D6, stated in abstract
[1] = healthy volunteers, coadministered with paroxetine; ref Ruiz-Garcia et al. [2014]; cited from earlier work
RLM = assay: Inhibition of poziotinib metabolism; type: in vitro ADME, rat
HLM = assay: Inhibition of poziotinib metabolism; type: in vitro ADME, human
recombinant human CYP3A4 = recombinant human CYP3A4 (Homo sapiens, UniProt P08684); assay: Inhibition of poziotinib metabolism; type: in vitro ADME; conditions: CYP3A4, stated in abstract
[2] = type: in vivo, Sprague–Dawley rats
[3] = patients, combined with paclitaxel and trastuzumab; ref Kim TY et al. [2019]; cited from earlier work
[4] = dogs, oral dose of 0.3 mg/kg poziotinib; ref Kim et al. [2013]; cited from earlier work
[5] = rat, preadministered with dacomitinib (10 mg/kg) for two weeks

Sequence of recombinant human CYP3A4 (P08684 whole entry): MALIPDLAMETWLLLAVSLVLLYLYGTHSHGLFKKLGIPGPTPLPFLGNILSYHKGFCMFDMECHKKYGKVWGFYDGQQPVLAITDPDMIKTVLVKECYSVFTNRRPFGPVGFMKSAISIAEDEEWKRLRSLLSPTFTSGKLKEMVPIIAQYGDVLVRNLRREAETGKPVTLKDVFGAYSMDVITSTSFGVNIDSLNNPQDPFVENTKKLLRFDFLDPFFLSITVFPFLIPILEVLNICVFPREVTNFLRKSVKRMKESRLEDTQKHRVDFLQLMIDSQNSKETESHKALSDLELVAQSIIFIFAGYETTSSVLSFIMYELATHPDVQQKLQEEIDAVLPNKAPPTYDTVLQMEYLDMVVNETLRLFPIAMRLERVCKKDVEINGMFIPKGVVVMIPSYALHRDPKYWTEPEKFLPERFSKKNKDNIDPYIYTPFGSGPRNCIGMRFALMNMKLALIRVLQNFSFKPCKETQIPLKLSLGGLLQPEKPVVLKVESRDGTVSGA
Sequence of recombinant human CYP2D6 (P10635 whole entry): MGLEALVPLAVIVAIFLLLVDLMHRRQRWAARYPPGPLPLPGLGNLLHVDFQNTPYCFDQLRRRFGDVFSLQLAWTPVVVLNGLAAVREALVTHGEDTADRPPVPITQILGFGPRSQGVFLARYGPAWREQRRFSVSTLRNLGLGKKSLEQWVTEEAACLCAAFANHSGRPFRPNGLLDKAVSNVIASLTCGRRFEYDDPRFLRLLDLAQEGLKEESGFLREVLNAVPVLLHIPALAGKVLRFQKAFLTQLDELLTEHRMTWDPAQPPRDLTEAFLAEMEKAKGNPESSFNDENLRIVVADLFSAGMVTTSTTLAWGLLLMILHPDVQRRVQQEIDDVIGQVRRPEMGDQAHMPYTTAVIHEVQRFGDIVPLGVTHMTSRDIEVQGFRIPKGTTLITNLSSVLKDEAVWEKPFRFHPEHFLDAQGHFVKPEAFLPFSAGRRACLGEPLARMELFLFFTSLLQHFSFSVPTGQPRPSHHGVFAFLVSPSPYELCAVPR

- mechanism of inhibition of poziotinib metabolism (recombinant human CYP2D6): mixed way
- Ki (RLM; M1): 8.18 µM
- αKi (RLM; M1): 38.81 µM
- Ki (RLM; M2): 47.5 µM
- αKi (RLM; M2): 38.07 µM
- Ki (HLM; M1): 83.7 µM
- αKi (HLM; M1): 93.73 µM
- Ki (HLM; M2): 0.17 µM
- mechanism of inhibition of poziotinib metabolism (recombinant human CYP3A4): mixed way
Compound: COc1cc2ncnc(Nc3ccc(F)c(Cl)c3)c2cc1NC(=O)/C=C/CN1CCCCC1 [dacomitinib, Dacomitinib]
- increase of dacomitinib exposure [1]: 37%
- mechanism of inhibition of poziotinib metabolism (RLM): mixed inhibitor
- Inhibition type (RLM; M1, Lineweaver–Burk plot): Mixed
- Inhibition type (RLM; M2, Lineweaver–Burk plot): Mixed
- mechanism of inhibition of poziotinib metabolism (HLM): mixed inhibitor
- Inhibition type (HLM; M1, Lineweaver–Burk plot): Mixed
- Inhibition type (HLM; M2, Lineweaver–Burk plot): Mixed

Compound: C=CC(=O)N1CCC(Oc2cc3c(Nc4ccc(Cl)c(Cl)c4F)ncnc3cc2OC)CC1 [poziotinib, Poziotinib]
- delay of Tmax of poziotinib after pre-treatment with dacomitinib ([2]; rat): ~3 h
- increase of AUC(0–t) of poziotinib, test group vs control group ([2]; rat, dacomitinib pre-treatment two weeks, p < 0.01): 1.6 fold
- increase of Tmax of poziotinib, test group vs control group [2, 5]: 1.3 fold
- increase of t1/2 of poziotinib, test group vs control group [2, 5]: 1.6 fold
- adverse effects observed ([2]; rats, poziotinib 10 mg/kg oral with or without dacomitinib): No obvious adverse effects were observed
- maximum tolerated dose (MTD) [3]: 8 mg/day
- Tmax [4]: 0.40 to 1.00 h
- t1/2 [4]: 3.40 to 5.40 h
